The test system of one series is Apis mellifera. The conditions noted are these: acute; duration: 48 hours; dermal; mortality.
The next series has as its system Canidae. The conditions noted are these: oral, Dog Other, clinical chemistry.
Another series has as its system Coturnix coturnix. The conditions noted are these: reproduction developmental.
The subject of the next series is Coturnix japonica. The conditions noted are these: acute, oral, mortality.
A further series deals with Daphnia magna. The conditions noted are these: chronic/long-term; duration: 21 days; reproduction.
For a further series, the system named is Lepomis macrochirus. The conditions noted are these: acute; duration: 96 hours; mortality.
In another series the test system is Mus musculus. The conditions noted are these: acute; oral; mortality.
Another series has as its system Oncorhynchus mykiss. The conditions noted are these: chronic/long-term; duration: 21 days; growth.
The next series has as its system Tagia sp. The conditions noted are these: acute; duration: 14 days; mortality.
In a further series the test system is Aphidius rhopalosiphi. Put plainly: LR50; higher = less toxic. The conditions noted are these: not reported; mortality.
A further series deals with Typhlodromus pyri. Put plainly: LR50; higher = less toxic. The conditions noted are these: not reported; mortality.

Molecules are shown by their SMILES. Some results are limits rather than exact numbers.

For `COc1cc(OC)nc(NC(=O)NS(=O)(=O)N(C)S(C)(=O)=O)n1` [Amidosulfuron], the LD50 in the series on Apis mellifera is above 100 µg/piece; in the series on Coturnix japonica, above 2000 mg/kg-day; with Mus musculus it was at least 5000 mg/kg-day. For the same compound, the NOAEL in the series on Canidae (chronic, duration: 52 weeks) stood at 144 mg/kg-day; in the series on Canidae (subchronic, duration: 3 months), 144 mg/kg-day; in the series on Rattus norvegicus (reproduction developmental, body weight), 22.5 mg/kg-day. Besides, the NOEC came to 1000 mg/kg-day with Coturnix coturnix; 1 mg/L in the series with Daphnia magna; 6.41 mg/L in the series on Oncorhynchus mykiss; 400 mg/kg-day in the series with Rattus norvegicus (chronic, mortality); 22.5 mg/kg-day with Rattus norvegicus (reproduction developmental, organ weight). Moreover, the LC50 in the series with Coturnix japonica (diet) was above 1170 mg/kg-day; with Lepomis macrochirus it was above 100 µg/mL; in the series on Tagia sp., above 1000 mg/kg. Further, the LR50 with Aphidius rhopalosiphi and in the series with Typhlodromus pyri was above 45 g/ha in each case.

Values taken from EPA's ToxValDB 9.5 (doi:10.2903/j.efsa.2008.116r).
